10 compounds from ChEMBL document CHEMBL1201862, “PubChem BioAssay data set” (2004) can be followed below.

Among the test systems are 786-0; ACHN; CCRF-CEM; COLO 205; EKVX; HOP-62; HOP-92; LOX IMVI; M14; MCF7; MDA-MB-435; Malme-3M; NCI-H226; NCI-H23; OVCAR-3; OVCAR-8; SF-268; TK-10; UACC-62; UO-31.
What all share (test): NCI tumour cell line growth inhibition, 48 h

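The compound was tested at five concentrations on cells cultured in 96-well plates, with a 48-hour exposure period. GI50: concentration for 50% inhibition of growth.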 Calls of active or inactive are those of the source. Rule as the data show it: active = GI50 up to about 1.1 µM and inactive = higher. Bounds are passed on as bounds.

As to `Cc1ccc(NC=O)c(-c2c(N)[nH]c(=S)[nH]c2=O)c1`, the GI50 in the assay on 786-0 was > 100 µM (inactive); in the assay on ACHN, 60.7 µM (inactive); in the assay on CCRF-CEM, > 100 µM (inactive); with COLO 205, > 100 µM (inactive); with EKVX, > 100 µM (inactive); with HOP-62, > 100 µM (inactive). For the same compound, the GI50 was > 100 µM (inactive) with HOP-92; > 100 µM (inactive) with LOX IMVI; > 100 µM (inactive) in the assay on M14; > 100 µM (inactive) in the assay with MCF7; 94 µM (inactive) in the assay with MDA-MB-435; > 100 µM (inactive) in the assay on Malme-3M. Besides, the GI50 in the assay on NCI-H226 is > 100 µM (inactive); in the assay on NCI-H23 it was > 100 µM (inactive); in the assay with OVCAR-3, 94.2 µM (inactive); with OVCAR-8, > 100 µM (inactive); with SF-268, > 100 µM (inactive); in the assay with TK-10 it was > 100 µM (inactive). The GI50 in the assay on UACC-62 and with UO-31 was > 100 µM (inactive) in each case.
As for `CCC1(C(=O)OC(C)(C)C)OC12C(C)CCCC2C` (stereo not given), the GI50 in the assay with 786-0 is 40.6 µM (inactive); in the assay with ACHN, 24.2 µM (inactive); in the assay on CCRF-CEM it was 18.7 µM (inactive); in the assay on COLO 205, 23.9 µM (inactive); in the assay on EKVX it was 63.7 µM (inactive); in the assay with HOP-62 it was 48.9 µM (inactive). Besides, the GI50 was 34.2 µM (inactive) in the assay on HOP-92; 32.1 µM (inactive) in the assay with LOX IMVI; 41.2 µM (inactive) with M14; 24.3 µM (inactive) in the assay on MCF7; 41.2 µM (inactive) with MDA-MB-435; 56.2 µM (inactive) with Malme-3M. The GI50 in the assay on NCI-H226 is 45 µM (inactive); in the assay with NCI-H23, 83.6 µM (inactive); in the assay with OVCAR-3, 34.3 µM (inactive); in the assay with OVCAR-8 it was 78.7 µM (inactive); in the assay on SF-268 it was 43.1 µM (inactive); in the assay with TK-10 it was 41.3 µM (inactive). Besides, the figures for the GI50 in the assay on UACC-62 and with UO-31 were 50.4 µM (inactive) and 48.5 µM (inactive), respectively.
Regarding `C/C(=C\COc1ccc2ccc(=O)oc2c1)CCC(=O)C(C)(C)O`, the GI50 was 18.3 µM (inactive) in the assay with 786-0; 31.3 µM (inactive) in the assay on ACHN; 16.4 µM (inactive) in the assay on CCRF-CEM; 20.7 µM (inactive) with COLO 205; 34 µM (inactive) in the assay with EKVX; 44 µM (inactive) in the assay on HOP-62. For the same compound, the GI50 was 26.4 µM (inactive) in the assay with HOP-92; 13.8 µM (inactive) with LOX IMVI; 22 µM (inactive) with M14; 19.1 µM (inactive) with MCF7; 21.4 µM (inactive) in the assay on MDA-MB-435; 44.9 µM (inactive) with Malme-3M. Further, the GI50 in the assay with NCI-H226 was 26.5 µM (inactive); in the assay with NCI-H23, 33 µM (inactive); in the assay on OVCAR-3, 17.9 µM (inactive); in the assay with OVCAR-8 it was 23.3 µM (inactive); in the assay with SF-268 it was 41.8 µM (inactive); in the assay with TK-10, 39.3 µM (inactive). The GI50 in the assay with UACC-62 is 18.3 µM (inactive); in the assay on UO-31 it was 28.4 µM (inactive).
Take `COc1cc(C[C@@]2(C)[C@@H]3CCC[C@H](CO)[C@@]3(C)CC[C@@H]2C)c(Cl)c(OC)c1`: the GI50 in the assay with 786-0 was 15.7 µM (inactive); with ACHN, 16 µM (inactive); in the assay on CCRF-CEM, 29.4 µM (inactive); with COLO 205 it was 15.3 µM (inactive); in the assay on EKVX it was 14.3 µM (inactive); with HOP-62 it was 17.1 µM (inactive). The GI50 in the assay on HOP-92 was 14.5 µM (inactive); with LOX IMVI, 17.8 µM (inactive); in the assay on M14 it was 18.3 µM (inactive); in the assay with MCF7, 15.5 µM (inactive); in the assay with MDA-MB-435 it was 13.7 µM (inactive); in the assay on Malme-3M, 16.2 µM (inactive). The GI50 was 15.8 µM (inactive) in the assay on NCI-H226; 19.6 µM (inactive) in the assay on NCI-H23; 15.3 µM (inactive) with OVCAR-3; 16 µM (inactive) with OVCAR-8; 14.9 µM (inactive) with SF-268; 19.5 µM (inactive) with TK-10. For the same compound, the GI50 in the assay on UACC-62 is 15.3 µM (inactive); in the assay with UO-31, 16.6 µM (inactive).
Regarding `O=[N+]([O-])/C=C/c1c(Cl)cccc1Cl`, the GI50 with 786-0 is 0.809 µM (active); in the assay with ACHN, 2.48 µM (inactive); in the assay on CCRF-CEM, 1.23 µM (inactive); in the assay on COLO 205, 0.849 µM (active); with EKVX it was 5.65 µM (inactive); in the assay with HOP-62, 6.38 µM (inactive). The GI50 was 4.9 µM (inactive) in the assay on HOP-92; 1.37 µM (inactive) in the assay with LOX IMVI; 1.48 µM (inactive) with M14; 1.64 µM (inactive) in the assay on MCF7; 1.77 µM (inactive) in the assay on MDA-MB-435; 3.05 µM (inactive) in the assay with Malme-3M. The GI50 in the assay with NCI-H226 was 10 µM (inactive); in the assay with NCI-H23, 4.46 µM (inactive); in the assay on OVCAR-3 it was 1.3 µM (inactive); with OVCAR-8, 1.4 µM (inactive); with SF-268, 4.32 µM (inactive); in the assay with TK-10, 2.67 µM (inactive). The GI50 was 2.77 µM (inactive) in the assay on UACC-62 and 3.76 µM (inactive) with UO-31.
With `CN(C)CCNC(=O)c1cccc2c(NCC(=O)O)c3ccccc3nc12`, the GI50 in the assay on 786-0 is 6.87 µM (inactive); in the assay on ACHN, 5.82 µM (inactive); with CCRF-CEM, 36 µM (inactive); in the assay with COLO 205, 5.21 µM (inactive); with EKVX, 10.6 µM (inactive); in the assay with HOP-62 it was 11.6 µM (inactive). The GI50 in the assay on HOP-92 is 8.04 µM (inactive); in the assay with LOX IMVI it was 4.97 µM (inactive); in the assay with M14 it was 17 µM (inactive); in the assay on MCF7, 3.79 µM (inactive); in the assay on MDA-MB-435, 11.4 µM (inactive); with Malme-3M, 11 µM (inactive). Further, the GI50 is 4.82 µM (inactive) in the assay with NCI-H226; 15.2 µM (inactive) in the assay with NCI-H23; 19.9 µM (inactive) with OVCAR-3; 4.61 µM (inactive) in the assay on OVCAR-8; 11.5 µM (inactive) in the assay on SF-268; 31 µM (inactive) with TK-10. For the same compound, the GI50 is 15.1 µM (inactive) in the assay on UACC-62 and 7.4 µM (inactive) with UO-31.
`CC1=CC(=O)/C(=C/NC(=S)c2ccncc2)C(=O)O1`: the GI50 in the assay with 786-0 was > 100 µM (inactive); with ACHN, > 100 µM (inactive); in the assay on CCRF-CEM, > 100 µM (inactive); with COLO 205 it was > 100 µM (inactive); in the assay on EKVX it was 46.7 µM (inactive); in the assay with HOP-62 it was > 100 µM (inactive). The GI50 with HOP-92 was > 100 µM (inactive); in the assay on LOX IMVI, > 100 µM (inactive); in the assay on M14 it was > 100 µM (inactive); with MCF7 it was > 100 µM (inactive); in the assay with MDA-MB-435, > 100 µM (inactive); in the assay with Malme-3M it was 83.2 µM (inactive). Further, the GI50 in the assay on NCI-H226 is 68.1 µM (inactive); in the assay on NCI-H23 it was > 100 µM (inactive); with OVCAR-3 it was > 100 µM (inactive); with OVCAR-8, > 100 µM (inactive); with SF-268, > 100 µM (inactive); in the assay on TK-10, > 100 µM (inactive). In addition, the GI50 in the assay on UACC-62 and in the assay with UO-31 was > 100 µM (inactive) in each case.
As for `CN(C)CCCNC(=O)c1cn2c(ccc3sc4ccccc4c(=O)c32)n1`, the GI50 in the assay with 786-0 is 3.06 µM (inactive); in the assay on ACHN, 11.8 µM (inactive); in the assay with CCRF-CEM it was 2.05 µM (inactive); in the assay on COLO 205, 3.77 µM (inactive); with EKVX, 14.4 µM (inactive); in the assay on HOP-62, 12.3 µM (inactive). Also, the GI50 with HOP-92 was 2.15 µM (inactive); with LOX IMVI, 1.41 µM (inactive); in the assay on M14 it was 12.9 µM (inactive); in the assay with MCF7 it was 3.73 µM (inactive); in the assay on MDA-MB-435, 13.6 µM (inactive); in the assay on Malme-3M, 8.99 µM (inactive). For the same compound, the GI50 is 17.3 µM (inactive) in the assay with NCI-H226; 13.4 µM (inactive) in the assay on NCI-H23; 10.7 µM (inactive) with OVCAR-3; 4.85 µM (inactive) with OVCAR-8; 3.82 µM (inactive) in the assay with SF-268; 16.5 µM (inactive) with TK-10. Also, the figures for the GI50 in the assay with UACC-62 and with UO-31 were 17.9 µM (inactive) and 10.8 µM (inactive), respectively.
In the case of `C=C1c2nc3ccccc3n2C=C(c2ccc(OC)cc2)N1c1ccc(OCCN2CCCCC2)cc1`, the GI50 in the assay with 786-0 is 14.2 µM (inactive); with ACHN, 8.24 µM (inactive); with CCRF-CEM it was 2.79 µM (inactive); with COLO 205 it was 18.7 µM (inactive); in the assay with EKVX, 40.9 µM (inactive); in the assay with HOP-62, 35.6 µM (inactive). In addition, the GI50 is 28.1 µM (inactive) in the assay with HOP-92; 7.41 µM (inactive) in the assay on LOX IMVI; 14.2 µM (inactive) in the assay on M14; 9.16 µM (inactive) in the assay on MCF7; 8.69 µM (inactive) in the assay on MDA-MB-435; > 48.4 µM (inactive) with Malme-3M. The GI50 was 28.2 µM (inactive) in the assay with NCI-H226; 6.32 µM (inactive) in the assay with NCI-H23; 19.9 µM (inactive) in the assay on OVCAR-3; 7.76 µM (inactive) in the assay with OVCAR-8; > 30.4 µM (inactive) with SF-268; 14.8 µM (inactive) in the assay with TK-10. Further, the GI50 is 20.7 µM (inactive) in the assay on UACC-62 and 8.22 µM (inactive) in the assay with UO-31.
For `CNC(=O)OC(COC)CN1CCN(c2ccccc2C)CC1` (stereo not given), the GI50 with 786-0, in the assay on ACHN, with CCRF-CEM, with COLO 205, with EKVX and with HOP-62 was > 10 µM (inactive) in each case. Besides, the GI50 with HOP-92, in the assay on LOX IMVI, in the assay with M14, in the assay with MCF7, with MDA-MB-435 and with Malme-3M was > 10 µM (inactive) throughout. Further, the GI50 with NCI-H226, with NCI-H23, with OVCAR-3, with OVCAR-8, with SF-268 and with TK-10 was > 10 µM (inactive) each time. Further, the GI50 with UACC-62 and with UO-31 was > 10 µM (inactive) in each case.
